Reference: patent publication EP4371976B1, “IONIZABLE LIPIDS AND LIPID NANOPARTICLES CONTAINING THEREOF” (Certest Biotec, S.L., priority 2022, dated 2024)

Columns and labels:
[1] = RNA encapsulation efficiency of LNPs by Quant-IT Ribogreen; assay type: physicochemical; settings: LNPs with luciferase mRNA; ionizable lipid:non-cationic lipid:sterol:PEG-modified lipid 50:10:38.5:1.5; percentage of RNA entrapped in the LNP
Procedure: The mRNA aqueous solution was then carefully added to the ethanol solution, and the resulted solution was homogenized by pipetting up and down for 4-5 times. The resulting LNPs were immediately diluted 1:1 with Tris buffer and dialyzed overnight against Tris buffer containing 15% sucrose. The resulting LNP solution was then collected, and the encapsulated mRNA was assessed by Quant-IT® Ribogreen (Invitrogen R11490) following the manufacturer's instructions.
(§1) The LNP solution was then adjusted to a final concentration of mRNA of 100 µg/ml. Size distribution, polydispersity and Z-potential were measured by dynamic light scattering (DLS) using Malvern Zetasizer Advance Lab Blue Label. RNA encapsulation was assessed by Quant-IT® Ribogreen following the manufacturer's instructions.

[2] = Size distribution, polydispersity and Z-potential of LNPs by dynamic light scattering (Malvern Zetasizer); assay type: physicochemical; settings: LNPs, standard formulation 50:10:38.5:1.5; DLS
Procedure: as §1

Row | Compound | Encaps. efficiency (%) [1] [%] | Z Potential (± D.E.) [mV] [2] [mV] | P.D.I. [2] | Particle size/ Ø (nm) [2] [nm]
1 | CCCCCCCCCCCCCOC(=O)CCSCCC(NC(=O)C(CCCCCC)CCCCCCCC)C(=O)NCCCN(C)C (centres unmarked) [VC-LC-0099] | 98.48 | 0.00 | – | –
2 | CCCCCCCCCCCCOC(=O)CCSCCC(NC(=O)C(CCCCCC)CCCCCCCC)C(=O)NCCCN(C)C (centres unmarked) [VC-LC-0103] | 100.00 | 0.00 | – | –
3 | CCCCCCCCCCCCCCOC(=O)CCSCCC(NC(=O)C(CCCCCC)CCCCCCCC)C(=O)NCCCN(C)C (centres unmarked) [VC-LC-0104] | 100.00 | 0.00 | – | –
4 | CCCCCCCCCCCCCCCCOC(=O)CCSCCC(NC(=O)C(CCCCCC)CCCCCCCC)C(=O)NCCCN(C)C (centres unmarked) [VC-LC-0106] | 98.70 | 0.00 | – | –
5 | CCCCCCCCC(CCCCCC)C(=O)NC(CCSCCC(=O)OCCCCCC(C)C)C(=O)NCCCN(C)C (centres unmarked) [VC-LC-0107] | 100.00 | 0.00 | – | –
6 | CCCCCCCCC(CCCCCC)C(=O)NC(CCSCCC(=O)OCCCCCCCC(C)C)C(=O)NCCCN1CCOCC1 (centres unmarked) [VC-LC-0165] | 45.16 | -26.69 | 0.21 | 181.9
7 | CCCCCCCCC(CCCCCC)C(=O)NC(CCSCCC(=O)OCC(CC)CCCC)C(=O)NCCCN1CCOCC1 (centres unmarked) [VC-LC-0166] | 42.53 | -24.55 | 0.11 | 164.8
8 | CCCCCCCCCCCCCCCCOC(=O)CCSCCC(NC(=O)C(CCCCCC)CCCCCCCC)C(=O)NCCCN1CCOCC1 (centres unmarked) [VC-LC-0170] | 56.36 | -22.79 | – | 266.4
9 | CCCCCCCCC(CCCCCC)C(=O)NC(CCSCCC(=O)OCCCCCC(C)C)C(=O)NCCCN1CCOCC1 (centres unmarked) [VC-LC-0171] | 53.65 | -23.07 | 0.24 | 228.8
10 | CCCCCCCCC(CCCCCC)C(=O)NC(CCSCCC(=O)OCCCCCC)C(=O)NCCCN1CCOCC1 (centres unmarked) [VC-LC-0175] | 23.97 | -15.84 | 0.09 | 120
11 | CCCCCCCCC(CCCCCC)C(=O)NC(CCSCCC(=O)OCCCCCCCC(C)C)C(=O)NCCN1CCN(C)CC1 (centres unmarked) [VC-LC-0180] | 87.95 | -4.28 | 0.19 | 197.5
12 | CCCCCCCCC(CCCCCC)C(=O)NC(CCSCCC(=O)OCC(CC)CCCC)C(=O)NCCN1CCN(C)CC1 (centres unmarked) [VC-LC-0181] | 85.48 | -6.47 | 0.35 | 206.7
13 | CCCCCCCCCCCCOC(=O)CCSCCC(NC(=O)C(CCCCCC)CCCCCCCC)C(=O)NCCN1CCN(C)CC1 (centres unmarked) [VC-LC-0182] | 91.18 | -2.72 | 0.22 | 217.1
14 | CCCCCCCCC(CCCCCC)C(=O)NC(CCSCCC(=O)OCCCCCC(C)C)C(=O)NCCN1CCN(C)CC1 (centres unmarked) [VC-LC-0186] | 86.70 | 3.38 | 0.18 | 158.7
15 | CCCCCCCCOC(=O)CCSCCC(NC(=O)C(CCCCCC)CCCCCCCC)C(=O)NCCN1CCN(C)CC1 (centres unmarked) [VC-LC-0191] | 87.02 | 4.77 | 0.11 | 135.2
16 | CCCCCCCCC(CCCCCC)C(=O)NC(CCSCCC(=O)OCC(CC)CCCC)C(=O)NCCCN(CCO)CCO (centres unmarked) [VC-LC-0197] | 90.54 | 1.39 | 0.22 | 262.2
17 | CCCCCCCCCCCCCCCCOC(=O)CCSCCC(NC(=O)C(CCCCCC)CCCCCCCC)C(=O)NCCCN(CCO)CCO (centres unmarked) [VC-LC-0201] | 86.70 | 2.80 | – | 259.7
18 | CCCCCCCCC(CCCCCC)C(=O)NC(CCSCCC(=O)OCCCCCC)C(=O)NCCCN(CCO)CCO (centres unmarked) [VC-LC-0206] | 82.26 | -2.86 | 0.17 | 179.9
19 | CCCCCCCCC(CCCCCC)C(=O)NC(CCSCCC(=O)OCCCCCCCC(C)C)C(=O)NC1CCN(C)CC1 (centres unmarked) [VC-LC-0211] | 67.87 | -4.59 | 0.14 | 181

Row | Compound | Encaps. efficiency (%) [1] [%] | Z Potential (± D.E.) [mV] [2] [mV] | P.D.I. [2] | Particle size/ Ø (nm) [2] [nm]
20 | CCCCCCCCC(CCCCCC)C(=O)NC(CCSCCC(=O)OCC(CC)CCCC)C(=O)NC1CCN(C)CC1 (centres unmarked) [VC-LC-0212] | 83.35 | -20.85 | 0.26 | 179
21 | CCCCCCCCCCCCCCCCOC(=O)CCSCCC(NC(=O)C(CCCCCC)CCCCCCCC)C(=O)NC1CCN(C)CC1 (centres unmarked) [VC-LC-0216] | 52.13 | -20.53 | 0.35 | –
22 | CCCCCCCCC(CCCCCC)C(=O)NC(CCSCCC(=O)OCCCCCC(C)C)C(=O)NC1CCN(C)CC1 (centres unmarked) [VC-LC-0217] | 72.79 | -2.41 | 0.14 | 156.7
23 | CCCCCCCCC(CCCCCC)C(=O)NC(CCSCCC(=O)OCCCCCCCC(C)C)C(=O)NCCCN1CCCC1 (centres unmarked) [VC-LC-0243] | 93.35 | 2.43 | 0.18 | 197.6
24 | CCCCCCCCC(CCCCCC)C(=O)NC(CCSCCC(=O)OCC(CC)CCCC)C(=O)NCCCN1CCCC1 (centres unmarked) [VC-LC-0244] | 53.57 | 1.09 | 0.16 | 175
25 | CCCCCCCCCCCCOC(=O)CCSCCC(NC(=O)C(CCCCCC)CCCCCCCC)C(=O)NCCCN1CCCC1 (centres unmarked) [VC-LC-0245] | 94.64 | 5.96 | 0.16 | 177.3
26 | CCCCCCCCCCCCOC(=O)CCSCCC(NC(=O)C(CCCCCC)CCCCCCCC)C(=O)NCCCn1ccnc1 (centres unmarked) [VC-LC-0260] | 44.25 | -17.24 | 0.18 | 161.7
27 | CCCCCCCCOC(=O)CCSCCC(NC(=O)C(CCCCCC)CCCCCCCC)C(=O)NCCCn1ccnc1 (centres unmarked) [VC-LC-0269] | 36.60 | -10.28 | 0.15 | 176.7
28 | CCCCCCCC/C=C\CCCCCCCC(=O)NC(CCSCCC(=O)OCCCCCCCCCCCCCCCC)C(=O)NCCCN(CCO)CCO (centres unmarked) [VC-LC-0290] | 56.36 | -22.79 | – | 266.4
29 | CCCCCCCC/C=C\CCCCCCCC(=O)NC(CCSCCC(=O)OCCCCCC(C)C)C(=O)NCCCN(CCO)CCO (centres unmarked) [VC-LC-0293] | 92.48 | 12.29 | 0.13 | 178.6
30 | CCCCCCCCCCCCCOC(=O)CCSCC(CC(=O)NCCCn1ccnc1)C(=O)OC(CCCCCCCC)CCCCCCCC (centres unmarked) [VC-LC-0294] | 65.74 | -10.37 | 0.09 | 160.7
31 | CCCCCCCCCCCCCCCCCCOC(=O)CCSCC(CC(=O)NCCCn1ccnc1)C(=O)OC(CCCCCCCC)CCCCCCCC (centres unmarked) [VC-LC-0300] | 36.51 | -9.75 | 0.17 | 156.9
32 | CCCCCCCCCCCCCCCCCCCCCCOC(=O)CCSCC(CC(=O)NCCCn1ccnc1)C(=O)OC(CCCCCCCC)CCCCCCCC (centres unmarked) [VC-LC-0304] | 54.05 | -23.20 | 0.26 | –
33 | CCCCCCCC/C=C\CCCCCCCC(=O)NC(CCSCCC(=O)OCCCCCCCCCCCCC)C(=O)NC1CCN(C)CC1 (centres unmarked) [VC-LC-0322] | 97.01 | 2.31 | 0.17 | 220.5
34 | CCCCCCCC/C=C\CCCCCCCC(=O)NC(CCSCCC(=O)OCCCCCCCCCCCC)C(=O)NC1CCN(C)CC1 (centres unmarked) [VC-LC-0326] | 99.06 | 7.00 | 0.25 | 181.9
35 | CCCCCCCC#CCOC(=O)CCSCCC(NC(=O)CCCCCCC/C=C\CCCCCCCC)C(=O)NCCCN1CCOCC1 (centres unmarked) [VC-LC-0354] | 68.28 | -0.57 | 0.13 | 234.3
36 | CCCCCCCCCCCCCCCCCCCCCCOC(=O)CCSCCC(C(=O)NCCCn1ccnc1)C(=O)OC(CCCCCCCC)CCCCCCCC (centres unmarked) [VC-LC-0363] | 63.87 | -17.92 | 0.18 | 143.9
37 | CCCCCCCCCCCCCCCCCCOC(=O)CCSCCC(C(=O)NCCCn1ccnc1)C(=O)OC(CCCCCCCC)CCCCCCCC (centres unmarked) [VC-LC-0368] | 89.08 | -15.81 | 0.1 | 140.9
38 | CCCCCCCCC(CCCCCCCC)OC(=O)C(CCSCCC(=O)OCCCCCC(C)C)C(=O)NCCCn1ccnc1 (centres unmarked) [VC-LC-0370] | 62.48 | -7.08 | 0.21 | 134.7
